Drawing on ChEMBL document CHEMBL1144057, “Guiaflavine, a new bisindole quaternary alkaloid from the stem bark of Strychnos guianensis” (J Nat Prod, 1999), this text covers LD100 for one molecule.

Molecules are shown by their SMILES.

The test system of the data set is Mus musculus. Put plainly: Toxicity in ip dosed NMRI mouse. Format: organism-based. As to conditions: in vivo.

`CCc1c[n+]2c(cc1C1=CN3c4ccccc4[C@@]45CC[N+]6(C)CC7=CCO[C@@H]1[C@@H]([C@H]34)[C@H]7C[C@@H]56)-c1[nH]c3cccc(OC)c3c1CC2.[Cl-].[Cl-]` (stereo partly specified) [GUIAFLAVINE] yielded an LD100 of 100 mg/kg.
